Data from ChEMBL document CHEMBL1143303 (Bioorg Med Chem Lett, 2009).
Calls of active or inactive are those of the source. The calls are words filed in the database; no cut-off is given here.

Columns and labels:
[1] = target: DNA (cytosine-5)-methyltransferase 1 (Homo sapiens) (UniProt P26358); assay: Inhibition of C1226 catalytic site of DNMT1
[2] = target: DNA (cytosine-5)-methyltransferase 1 (Homo sapiens) (UniProt P26358); assay: Inhibition of C1226 catalytic site of DNMT1 in presence of S-adenosyl methionine
[3] = target: Orphan methyltransferase M.SssI (Spiroplasma monobiae) (UniProt P15840); assay: Inhibition of Spiroplasma sp. MQ-1 M.SssI up to 100 uM
[4] = target: Orphan methyltransferase M.SssI (Spiroplasma monobiae, UniProt P15840); assay: (§1) Inhibition of Spiroplasma sp. MQ-1 M.SssI
[5] = target: Orphan methyltransferase M.SssI (Spiroplasma monobiae) (UniProt P15840); assay: as §1
[6] = system: MV4-11; assay: Induction of global DNA hypomethylation in human MV411 cells at 1 uM after 72 hrs by LC-MS/MS analysis relative to control; format: functional, cell-based
[7] = system: MV4-11; assay: Decrease in global DNA methylation in human MV411 cells at 3 uM after 72 hrs by LC-MS/MS analysis relative to control; format: functional; parameters: scale not given: the % may be the effect or the level left
[8] = system: MV4-11; assay: Decrease in global DNA methylation in human MV411 cells at 30 uM after 72 hrs by LC-MS/MS analysis relative to control; format: functional; parameters: scale not given: the % may be the effect or the level left

DNA (cytosine-5)-methyltransferase 1 (Homo sapiens), sequence (P26358 whole entry): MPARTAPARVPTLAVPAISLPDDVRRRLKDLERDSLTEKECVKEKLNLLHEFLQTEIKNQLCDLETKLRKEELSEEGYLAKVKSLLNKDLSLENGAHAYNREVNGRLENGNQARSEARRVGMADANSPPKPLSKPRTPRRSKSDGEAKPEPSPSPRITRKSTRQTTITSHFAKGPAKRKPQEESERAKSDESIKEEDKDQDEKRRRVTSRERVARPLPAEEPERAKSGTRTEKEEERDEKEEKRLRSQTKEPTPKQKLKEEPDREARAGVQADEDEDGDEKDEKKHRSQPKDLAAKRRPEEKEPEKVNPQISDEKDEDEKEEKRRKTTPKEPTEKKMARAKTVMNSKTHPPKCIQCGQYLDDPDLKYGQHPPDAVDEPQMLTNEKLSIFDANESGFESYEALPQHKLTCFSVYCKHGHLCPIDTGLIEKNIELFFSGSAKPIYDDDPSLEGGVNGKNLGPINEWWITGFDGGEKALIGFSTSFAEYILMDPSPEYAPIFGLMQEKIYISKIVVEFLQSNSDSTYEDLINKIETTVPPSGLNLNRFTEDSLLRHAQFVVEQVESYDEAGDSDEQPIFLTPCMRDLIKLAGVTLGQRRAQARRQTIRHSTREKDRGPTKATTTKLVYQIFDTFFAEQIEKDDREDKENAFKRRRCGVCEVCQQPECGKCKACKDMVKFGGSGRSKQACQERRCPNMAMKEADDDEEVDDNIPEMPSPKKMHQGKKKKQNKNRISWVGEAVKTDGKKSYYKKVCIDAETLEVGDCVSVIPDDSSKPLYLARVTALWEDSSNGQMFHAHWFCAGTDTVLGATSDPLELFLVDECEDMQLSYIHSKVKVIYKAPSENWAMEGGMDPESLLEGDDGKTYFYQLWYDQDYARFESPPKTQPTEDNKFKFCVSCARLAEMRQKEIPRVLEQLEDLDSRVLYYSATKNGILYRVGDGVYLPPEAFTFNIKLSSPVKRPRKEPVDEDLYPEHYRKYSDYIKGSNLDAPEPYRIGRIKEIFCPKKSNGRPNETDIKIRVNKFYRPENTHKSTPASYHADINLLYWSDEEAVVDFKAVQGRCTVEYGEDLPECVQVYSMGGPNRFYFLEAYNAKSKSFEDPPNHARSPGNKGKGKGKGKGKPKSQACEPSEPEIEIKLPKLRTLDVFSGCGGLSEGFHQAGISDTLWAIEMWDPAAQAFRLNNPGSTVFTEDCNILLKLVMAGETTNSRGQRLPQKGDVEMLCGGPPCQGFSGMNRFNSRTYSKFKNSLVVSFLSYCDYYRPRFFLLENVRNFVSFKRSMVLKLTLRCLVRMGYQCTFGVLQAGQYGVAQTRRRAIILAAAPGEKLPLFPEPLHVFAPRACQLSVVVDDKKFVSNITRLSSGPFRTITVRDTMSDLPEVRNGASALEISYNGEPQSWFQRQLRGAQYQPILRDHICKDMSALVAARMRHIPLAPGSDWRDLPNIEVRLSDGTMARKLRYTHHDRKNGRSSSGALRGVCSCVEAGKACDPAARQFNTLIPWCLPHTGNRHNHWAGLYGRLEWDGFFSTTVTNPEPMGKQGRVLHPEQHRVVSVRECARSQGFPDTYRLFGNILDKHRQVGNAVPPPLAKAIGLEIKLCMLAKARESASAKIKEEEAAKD
Orphan methyltransferase M.SssI (Spiroplasma monobiae), sequence (P15840 whole entry): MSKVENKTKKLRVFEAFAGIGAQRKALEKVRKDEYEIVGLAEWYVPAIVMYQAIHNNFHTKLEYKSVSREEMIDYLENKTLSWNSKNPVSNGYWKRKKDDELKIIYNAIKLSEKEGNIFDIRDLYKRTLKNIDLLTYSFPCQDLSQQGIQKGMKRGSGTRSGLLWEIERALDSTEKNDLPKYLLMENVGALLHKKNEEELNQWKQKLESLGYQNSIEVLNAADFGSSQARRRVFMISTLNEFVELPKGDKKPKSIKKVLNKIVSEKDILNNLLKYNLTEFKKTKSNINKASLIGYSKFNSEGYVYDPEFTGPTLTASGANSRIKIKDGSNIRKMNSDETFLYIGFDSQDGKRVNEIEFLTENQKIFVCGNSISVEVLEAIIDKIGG
Orphan methyltransferase M.SssI, sequence (P15840 whole entry): as above

Structure (SMILES) | Activity [1] | Activity [2] | Activity [3] | IC50 [4] [nM] | Activity [5] | Activity [6] | Activity [7] [%] | Activity [8] [%]
COc1cc(CCC(=O)CC(=O)CCc2ccc(O)c(OC)c2)ccc1O | Active | Active | – | – | – | – | – | –
COc1cc(CCC(=O)CC(O)CCc2ccc(O)c(OC)c2)ccc1O (centres undefined) | Active | Active | inactive | – | – | – | – | –
O=C(/C=C/c1ccc(O)cc1)CC(=O)/C=C/c1ccc(O)cc1 [BISDEMETHOXYCURCUMIN] | Active | – | – | 30 | – | – | – | –
COc1cc(/C=C/C(=O)CC(=O)/C=C/c2ccc(O)c(OC)c2)ccc1O [CURCUMIN] | Active | – | – | – | Dose-dependent effect | inactive | 15 | 15
COc1cc(/C=C/C(O)=C/C(=O)/C=C/c2ccc(O)cc2)ccc1O [DEMETHOXYCURCUMIN] | Active | – | – | 30 | – | – | – | –
